Measurements taken from patent US8680113B2, “BMI-1 protein expression modulators” (PTC Therapeutics, Inc., priority 2008, dated 2014).

Each compound was assayed on Bmi-1 (assay: Sandwich ELISA Assay (Bmi-1 ELISA in HT-1080 cells)).
Assay type: cell-based, human
Method in brief: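 HT-1080 cells (8000/well) were treated with compounds in 0.5% final DMSO for 40-48 h at 37°C and then lysed. Bmi-1 in lysates was measured by sandwich ELISA: overnight capture at 4°C on mouse monoclonal, rabbit anti-Bmi-1 detection, HRP anti-rabbit, TMB. OD450 was read with an OD570 reference against a recombinant GST-Bmi-1 standard curve (0-8000 pg/mL).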

IC50, < 500 nM:
FC(F)(F)c1nc2ccccn2c1-c1csc(Nc2ccc3c(c2)OCO3)n1 [Cpd 195, N-(1,3-benzodioxol-5-yl)-4-[2-(trifluoromethyl)imidazo[1,2-a]pyridin-3-yl]-1,3-thiazol-2-amine]
Cc1nc2ccccn2c1-c1ccnc(Nc2ccc(C(=O)O)cc2)n1 [Cpd 196, 4-{[4-(2-methylimidazo[1,2-a]pyridin-3-yl)pyrimidin-2-yl]amino}benzoic acid]
Cc1nc2ccccn2c1-c1csc(Nc2ccc(Br)cc2)n1 [Cpd 197, N-(4-bromophenyl)-4-(2-methylimidazo[1,2-a]pyridin-3-yl)-1,3-thiazol-2-amine]
Cc1nc2ccccn2c1-c1csc(Nc2ccc(Cl)c(Cl)c2)n1 [Cpd 198, N-(3,4-dichlorophenyl)-4-(2-methylimidazo[1,2-a]pyridin-3-yl)-1,3-thiazol-2-amine]
Cc1nc2ccccn2c1-c1csc(Nc2ccc(Cl)cc2)n1 [Cpd 199, N-(4-chlorophenyl)-4-(2-methylimidazo[1,2-a]pyridin-3-yl)-1,3-thiazol-2-amine]
Cc1nc2ccccn2c1-c1csc(Nc2ccc(Br)cc2Cl)n1 [Cpd 200, N-(4-bromo-2-chlorophenyl)-4-(2-methylimidazo[1,2-a]pyridin-3-yl)-1,3-thiazol-2-amine]
Cc1nc2ccccn2c1-c1csc(Nc2ccc(O)c(O)c2)n1 [Cpd 201, 4-{[4-(2-methylimidazo[1,2-a]pyridin-3-yl)-1,3-thiazol-2-yl]amino}benzene-1,2-diol]
COc1ccc(Nc2nc(-c3c(C)nc4ccccn34)cs2)cc1OC [Cpd 202, N-(3,4-dimethoxyphenyl)-4-(2-methylimidazo[1,2-a]pyridin-3-yl)-1,3-thiazol-2-amine]
Cc1nc2ccccn2c1-c1csc(Nc2ccc(F)cc2F)n1 [Cpd 203, N-(2,4-difluorophenyl)-4-(2-methylimidazo[1,2-a]pyridin-3-yl)-1,3-thiazol-2-amine]
CCOc1ccc(Nc2nc(-c3c(C)nc4ccccn34)cs2)cc1 [Cpd 204, N-(4-ethoxyphenyl)-4-(2-methylimidazo[1,2-a]pyridin-3-yl)-1,3-thiazol-2-amine]
Cc1ccc(Nc2nc(-c3c(C)nc4ccc(Cl)cn34)cs2)c(Br)c1 [Cpd 205, N-(2-bromo-4-methylphenyl)-4-(6-chloro-2-methylimidazo[1,2-a]pyridin-3-yl)-1,3-thiazol-2-amine]
CCN(CC)c1ccc(Nc2nc(-c3c(C)nc4ccc(Cl)cn34)cs2)cc1 [Cpd 206, N′-[4-(6-chloro-2-methylimidazo[1,2-a]pyridin-3-yl)-1,3-thiazol-2-yl]-N,N-diethylbenzene-1,4-diamine]
COc1ccc(Nc2nc(-c3c(C)nc4ccc(Cl)cn34)cs2)cc1OC [Cpd 207, 4-(6-chloro-2-methylimidazo[1,2-a]pyridin-3-yl)-N-(3,4-dimethoxyphenyl)-1,3-thiazol-2-amine]
COc1ccc(Nc2nc(-c3c(C)nc4ccc(Cl)cn34)cs2)c(Br)c1 [Cpd 208, N-(2-bromo-4-methoxyphenyl)-4-(6-chloro-2-methylimidazo[1,2-a]pyridin-3-yl)-1,3-thiazol-2-amine]
Cc1cccc(Nc2nc(-c3c(C)nc4ccc(Cl)cn34)cs2)c1 [Cpd 209, 4-(6-chloro-2-methylimidazo[1,2-a]pyridin-3-yl)-N-(3-methylphenyl)-1,3-thiazol-2-amine]
Cc1nc2ccc(Cl)cn2c1-c1csc(Nc2cccc(O)c2)n1 [Cpd 210, 3-{[4-(6-chloro-2-methylimidazo[1,2-a]pyridin-3-yl)-1,3-thiazol-2-yl]amino}phenol]
CC(=O)c1cccc(Nc2nc(-c3c(C)nc4ccc(Cl)cn34)cs2)c1 [Cpd 211, 1-(3-{[4-(6-chloro-2-methylimidazo[1,2-a]pyridin-3-yl)-1,3-thiazol-2-yl]amino}phenyl)ethanone]
Cc1nc2ccc(Cl)cn2c1-c1csc(Nc2cccc(Br)c2)n1 [Cpd 212, N-(3-bromophenyl)-4-(6-chloro-2-methylimidazo[1,2-a]pyridin-3-yl)-1,3-thiazol-2-amine]
Cc1nc2ccc(Cl)cn2c1-c1csc(Nc2cccc(Cl)c2)n1 [Cpd 213, 4-(6-chloro-2-methylimidazo[1,2-a]pyridin-3-yl)-N-(3-chlorophenyl)-1,3-thiazol-2-amine]
Cc1ccc(Nc2nc(-c3c(C)nc4ccc(Cl)cn34)cs2)c(C)c1 [Cpd 214, 4-(6-chloro-2-methylimidazo[1,2-a]pyridin-3-yl)-N-(2,4-dimethylphenyl)-1,3-thiazol-2-amine]
Cc1nc2ccc(Cl)cn2c1-c1csc(Nc2cccc(F)c2)n1 [Cpd 215, 4-(6-chloro-2-methylimidazo[1,2-a]pyridin-3-yl)-N-(3-fluorophenyl)-1,3-thiazol-2-amine]
Cc1cc(Br)ccc1Nc1nc(-c2c(C)nc3ccc(Cl)cn23)cs1 [Cpd 216, N-(4-bromo-2-methylphenyl)-4-(6-chloro-2-methylimidazo[1,2-a]pyridin-3-yl)-1,3-thiazol-2-amine]
COc1cccc(Nc2nc(-c3c(C)nc4ccc(Cl)cn34)cs2)c1 [Cpd 217, 4-(6-chloro-2-methylimidazo[1,2-a]pyridin-3-yl)-N-(3-methoxyphenyl)-1,3-thiazol-2-amine]
Cc1nc2ccc(Cl)cn2c1-c1csc(Nc2ccc(Cl)cc2Cl)n1 [Cpd 218, 4-(6-chloro-2-methylimidazo[1,2-a]pyridin-3-yl)-N-(2,4-dichlorophenyl)-1,3-thiazol-2-amine]
Cc1nc2ccc(Cl)cn2c1-c1csc(Nc2ccc3c(c2)OC(C)(C)O3)n1 [Cpd 219, 4-(6-chloro-2-methylimidazo[1,2-a]pyridin-3-yl)-N-(2,2-dimethyl-1,3-benzodioxol-5-yl)-1,3-thiazol-2-amine]
Cc1nc2c(Cl)cc(Cl)cn2c1-c1csc(Nc2ccc3c(c2)OCO3)n1 [Cpd 220, N-(1,3-benzodioxol-5-yl)-4-(6,8-dichloro-2-methylimidazo[1,2-a]pyridin-3-yl)-1,3-thiazol-2-amine]
Cc1nc2c(C)cccn2c1-c1csc(Nc2ccc(N(C)C)cc2)n1 [Cpd 221, N′-[4-(2,8-dimethylimidazo[1,2-a]pyridin-3-yl)-1,3-thiazol-2-yl]-N,N-dimethylbenzene-1,4-diamine]
COc1ccc(Nc2nc(-c3c(C)nc4c(C)cccn34)cs2)cc1 [Cpd 222, 4-(2,8-dimethylimidazo[1,2-a]pyridin-3-yl)-N-(4-methoxyphenyl)-1,3-thiazol-2-amine]
Cc1ccc(Nc2nc(-c3c(C)nc4c(C)cccn34)cs2)cc1 [Cpd 223, 4-(2,8-dimethylimidazo[1,2-a]pyridin-3-yl)-N-(4-methylphenyl)-1,3-thiazol-2-amine]
Cc1nc2c(C)cccn2c1-c1csc(Nc2ccc(Cl)cc2)n1 [Cpd 224, N-(4-chlorophenyl)-4-(2,8-dimethylimidazo[1,2-a]pyridin-3-yl)-1,3-thiazol-2-amine]
COc1cccc(Nc2nc(-c3c(C)nc4c(C)cccn34)cs2)c1 [Cpd 225, 4-(2,8-dimethylimidazo[1,2-a]pyridin-3-yl)-N-(3-methoxyphenyl)-1,3-thiazol-2-amine]
Cc1nc2c(C)cccn2c1-c1csc(Nc2ccc3c(c2)OCO3)n1 [Cpd 226, N-(1,3-benzodioxol-5-yl)-4-(2,8-dimethylimidazo[1,2-a]pyridin-3-yl)-1,3-thiazol-2-amine]
Cc1nc2c(Br)cccn2c1-c1csc(Nc2ccc(N(C)C)cc2)n1 [Cpd 227, N′-[4-(8-bromo-2-methylimidazo[1,2-a]pyridin-3-yl)-1,3-thiazol-2-yl]-N,N-dimethylbenzene-1,4-diamine]
COc1ccc(Nc2nc(-c3c(C)nc4c(Br)cccn34)cs2)cc1 [Cpd 228, 4-(8-bromo-2-methylimidazo[1,2-a]pyridin-3-yl)-N-(4-methoxyphenyl)-1,3-thiazol-2-amine]
Cc1ccc(Nc2nc(-c3c(C)nc4c(Br)cccn34)cs2)cc1 [Cpd 229, 4-(8-bromo-2-methylimidazo[1,2-a]pyridin-3-yl)-N-(4-methylphenyl)-1,3-thiazol-2-amine]
Cc1nc2c(Br)cccn2c1-c1csc(Nc2ccc(Cl)cc2)n1 [Cpd 230, 4-(8-bromo-2-methylimidazo[1,2-a]pyridin-3-yl)-N-(4-chlorophenyl)-1,3-thiazol-2-amine]
Cc1nc2c(Br)cccn2c1-c1csc(Nc2ccccc2)n1 [Cpd 231, 4-(8-bromo-2-methylimidazo[1,2-a]pyridin-3-yl)-N-phenyl-1,3-thiazol-2-amine]
COc1cccc(Nc2nc(-c3c(C)nc4c(Br)cccn34)cs2)c1 [Cpd 232, 4-(8-bromo-2-methylimidazo[1,2-a]pyridin-3-yl)-N-(3-methoxyphenyl)-1,3-thiazol-2-amine]
Cc1nc2c(Br)cccn2c1-c1csc(Nc2ccccc2Cl)n1 [Cpd 233, 4-(8-bromo-2-methylimidazo[1,2-a]pyridin-3-yl)-N-(2-chlorophenyl)-1,3-thiazol-2-amine]
COc1ccccc1Nc1nc(-c2c(C)nc3c(Br)cccn23)cs1 [Cpd 234, 4-(8-bromo-2-methylimidazo[1,2-a]pyridin-3-yl)-N-(2-methoxyphenyl)-1,3-thiazol-2-amine]
